Data published in ChEMBL document CHEMBL2073917, “Polymethoxylated flavones in orange juice are inhibitors of P-glycoprotein but not cytochrome P450 3A4” (J Pharmacol Exp Ther, 2000).

How the values were obtained:
Assay type in all cases: functional, cell-based
Settings in all cases: pig, llc-pk1, 20 µM
[1] = molecular target: T1, ATP-dependent translocase ABCB1 (Homo sapiens, UniProt P08183); assay: TP_TRANSPORTER: increase in Vinblastine uptake (Vinblastine: 0.02 uM, HMF: 20 uM) in MDR1-expressing LLC-PK1 cells
[2] = molecular target: T1, ATP-dependent translocase ABCB1; assay: TP_TRANSPORTER: increase in Vinblastine uptake (Vinblastine: 0.02 uM, Nobiletin: 20 uM) in MDR1-expressing LLC-PK1 cells
[3] = molecular target: T1, ATP-dependent translocase ABCB1; assay: TP_TRANSPORTER: increase in Vinblastine uptake (Vinblastine: 0.02 uM, Tangeretin: 20 uM) in MDR1-expressing LLC-PK1 cells

T1 sequence (P08183 whole entry): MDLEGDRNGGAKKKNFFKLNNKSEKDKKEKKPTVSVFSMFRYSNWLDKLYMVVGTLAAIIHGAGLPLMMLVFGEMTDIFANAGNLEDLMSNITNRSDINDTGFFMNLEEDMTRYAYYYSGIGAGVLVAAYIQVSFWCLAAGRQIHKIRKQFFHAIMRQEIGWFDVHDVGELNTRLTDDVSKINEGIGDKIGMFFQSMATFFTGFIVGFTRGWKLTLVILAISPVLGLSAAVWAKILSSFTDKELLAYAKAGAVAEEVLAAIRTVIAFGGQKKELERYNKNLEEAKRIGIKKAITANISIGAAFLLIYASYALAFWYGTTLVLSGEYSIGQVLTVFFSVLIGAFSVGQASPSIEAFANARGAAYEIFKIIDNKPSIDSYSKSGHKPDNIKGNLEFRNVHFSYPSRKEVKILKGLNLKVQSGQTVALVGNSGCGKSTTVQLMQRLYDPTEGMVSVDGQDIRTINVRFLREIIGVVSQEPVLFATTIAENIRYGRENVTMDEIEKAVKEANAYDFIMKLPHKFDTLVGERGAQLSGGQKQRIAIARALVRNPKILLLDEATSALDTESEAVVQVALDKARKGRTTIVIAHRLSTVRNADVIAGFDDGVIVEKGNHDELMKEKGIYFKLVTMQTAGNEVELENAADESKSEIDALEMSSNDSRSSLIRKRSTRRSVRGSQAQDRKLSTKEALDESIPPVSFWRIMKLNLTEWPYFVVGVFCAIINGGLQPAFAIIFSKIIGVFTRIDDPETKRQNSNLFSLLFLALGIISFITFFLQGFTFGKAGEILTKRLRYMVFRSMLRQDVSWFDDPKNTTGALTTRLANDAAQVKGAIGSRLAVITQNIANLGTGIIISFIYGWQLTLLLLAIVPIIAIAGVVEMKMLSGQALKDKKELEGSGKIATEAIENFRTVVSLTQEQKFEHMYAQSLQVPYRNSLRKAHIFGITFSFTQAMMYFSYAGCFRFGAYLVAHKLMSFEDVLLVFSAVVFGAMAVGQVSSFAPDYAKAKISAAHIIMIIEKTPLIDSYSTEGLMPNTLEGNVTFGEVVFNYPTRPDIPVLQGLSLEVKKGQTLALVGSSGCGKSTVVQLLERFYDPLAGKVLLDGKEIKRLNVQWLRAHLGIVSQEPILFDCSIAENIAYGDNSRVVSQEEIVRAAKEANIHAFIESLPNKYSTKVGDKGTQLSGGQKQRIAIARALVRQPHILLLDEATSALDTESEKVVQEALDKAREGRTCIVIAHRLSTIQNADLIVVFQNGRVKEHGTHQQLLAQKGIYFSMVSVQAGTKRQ

SMILES: COc1ccc(-c2oc3c(OC)c(OC)c(OC)c(OC)c3c(=O)c2OC)cc1OC [3,5,6,7,8,3',4'-HEPTAMETHOXYFLAVONE]
- Activity [1]: 935%

SMILES: COc1ccc(-c2cc(=O)c3c(OC)c(OC)c(OC)c(OC)c3o2)cc1OC [NOBILETIN]
- Activity [2]: 604%

SMILES: COc1ccc(-c2cc(=O)c3c(OC)c(OC)c(OC)c(OC)c3o2)cc1 [TANGERETIN]
- Activity [3]: 175%
